Laboratory results published in US20050004200A1, “Pyrazole compounds as integrin receptor antagonists derivatives” (Pharmacia Corporation, priority 2002, published 2005).
Read-outs that look alike come from different tables or passages of the source.

Legend:
[1] = in vivo
[2] = plasma level upon oral dosing (AUC-PO); details: plasma AUC normalised to dose

Compound	Rat AUC-PO/dose [1] [µg·h/mL/mg/kg]	Rat AUC-PO/dose [2] [µg·h/mL/mg/kg]
3-(1,3-benzodioxol-5-yl)-4-[5-[2-(1-methyl-1,2,3,4-tetrahydropyrido[2,3-b]pyrazin-6-yl)ethoxy]-1-(2,2,2-trifluoroethyl)-1H-pyrazol-3-yl]butanoic acid [Example 27]	2	
Cn1nc(CC(CC(=O)O)c2ccc3c(c2)OCO3)cc1OCCc1ccc2c(n1)NCCC2 (centres unmarked) [Example 1, 3-(1,3-benzodioxol-5-yl)-4-{1-methyl-5-[2-(5,6,7,8-tetrahydro-1,8-naphthyridin-2-yl)ethoxy]-1H-pyrazol-3-yl}butanoic acid]		0.9
Cn1nc(CC(CC(=O)O)c2cnc(-c3ccc(Cl)cc3)s2)cc1OCCc1ccc2c(n1)NCCC2 (centres unmarked) [Example 2, 3-[2-(4-chlorophenyl)-1,3-thiazol-5-yl]-4-{1-methyl-5-[2-(5,6,7,8-tetrahydro-1,8-naphthyridin-2-yl)ethoxy]-1H-pyrazol-3-yl}butanoic acid]		1
Cn1nc(CC(CC(=O)O)c2ccc3c(c2)OCO3)cc1SCCc1ccc2c(n1)NCCC2 (centres unmarked) [Example 3, 3-(1,3-benzodioxol-5-yl)-4-(1-methyl-5-{[2-(5,6,7,8-tetrahydro-1,8-naphthyridin-2-yl)ethyl]thio}-1H-pyrazol-3-yl)butanoic acid]		2.2
Cn1nc(CC(CC(=O)O)c2ccc3c(c2)OCO3)cc1S(=O)(=O)CCc1ccc2c(n1)NCCC2 (centres unmarked) [Example 4, 3-(1,3-benzodioxol-5-yl)-4-(1-methyl-5-{[2-(5,6,7,8-tetrahydro-1,8-naphthyridin-2-yl)ethyl]sulfonyl}-1H-pyrazol-3-yl)butanoic acid]		0.7
Cl.Cn1nc(CC(CC(=O)O)c2cnc(C3CC3)s2)cc1OCCc1ccc2c(n1)NCCC2 (centres unmarked) [Example 6, 3-(2-cyclopropyl-1,3-thiazol-5-yl)-4-{1-methyl-5-[2-(5,6,7,8-tetrahydro-1,8-naphthyridin-2-yl)ethoxy]-1H-pyrazol-3-yl}butanoic acid]		1.1
COc1ccc(C(CC(=O)O)Cc2cc(OCCc3ccc4c(n3)NCCN4C)n(C)n2)cn1 (centres unmarked) [Example 7, 3-(6-methoxypyridin-3-yl)-4-{1-methyl-5-[2-(1-methyl-1,2,3,4-tetrahydropyrido[2,3-b]pyrazin-6-yl)ethoxy]-1H-pyrazol-3-yl}butanoic acid]		0.8
CNc1cccc(CCOc2cc(CC(CC(=O)O)c3ccc4c(c3)OCO4)nn2C)n1 (centres unmarked) [Example 8, 3-(1,3-benzodioxol-5-yl)-4-(1-methyl-5-{2-[6-(methylamino)pyridin-2-yl]ethoxy}-1H-pyrazol-3-yl)butanoic acid]		0.7
O=C(O)CC(Cc1cc(OCCc2ccc3c(n2)NCCC3)n(-c2ccccc2)n1)c1ccc2c(c1)OCO2 (centres unmarked) [Example 21, 3-(1,3-benzodioxol-5-yl)-4-{1-phenyl-5-[2-(5,6,7,8-tetrahydro-1,8-naphthyridin-2-yl)ethoxy]-1H-pyrazol-3-yl}butanoic acid]		1.7
COc1ccc(C(CC(=O)O)Cc2cc(OCCc3ccc4c(n3)NCCC4)n(CC(F)(F)F)n2)cn1 (centres unmarked) [Example 23, 3-(6-methoxypyridin-3-yl)-4-[5-[2-(5,6,7,8-tetrahydro-1,8-naphthyridin-2-yl)ethoxy]-1-(2,2,2-trifluoroethyl)-1H-pyrazol-3-yl]butanoic acid]		0.8
Cn1nc(CC(CC(=O)O)c2ccc3c(c2)OCO3)cc1OCCc1ccc2c(n1)NCCN2 (centres unmarked) [Example 25, 3-(1,3-benzodioxol-5-yl)-4-{1-methyl-5-[2-(1,2,3,4-tetrahydropyrido[2,3-b]pyrazin-6-yl)ethoxy]-1H-pyrazol-3-yl}butanoic acid]		0.4
O=C(O)CC(Cc1cc(OCCc2ccc3c(n2)NCCN3)n(CC(F)(F)F)n1)c1ccc2c(c1)OCO2 (centres unmarked) [Example 26, 3-(1,3-benzodioxol-5-yl)-4-[5-[2-(1,2,3,4-tetrahydropyrido[2,3-b]pyrazin-6-yl)ethoxy]-1-(2,2,2-trifluoroethyl)-1H-pyrazol-3-yl]butanoic acid]		0.9
CN1CCNc2nc(CCOc3cc(CC(CC(=O)O)c4ccc5c(c4)OCO5)nn3C)ccc21 (centres unmarked) [Example 31, 3-(1,3-benzodioxol-5-yl)-4-{1-methyl-5-[2-(1-methyl-1,2,3,4-tetrahydropyrido[2,3-b]pyrazin-6-yl)ethoxy]-1H-pyrazol-3-yl}butanoic acid]		1.9
Cc1cc(CCOc2cc(CC(CC(=O)O)c3ccc4c(c3)OCO4)nn2C)nc2c1CCCN2 (centres unmarked) [Example 32, 3-(1,3-Benzodioxol-5-yl)-4-{1-methyl-5-[2-(4-methyl-5,6,7,8-tetrahydro-1,8-naphthyridin-2-yl)ethoxy]-1H-pyrazol-3-yl}butanoic acid]		2.2
